EPA's ToxValDB 9.5 (doi:10.2903/j.efsa.2009.182r)

What was measured:
[1] = test system: Coturnix japonica; settings: acute; oral; mortality
[2] = test system: Tagia sp.; settings: acute; duration: 14 days; mortality
[3] = test system: Rattus norvegicus; settings: for NOAEL: inhalation
[4] = test system: Apis mellifera; settings: acute; duration: 48 hours; oral; unspecified; mortality
[5] = test system: Oncorhynchus mykiss; settings: acute; duration: 96 hours; mortality
[6] = chronic, duration: 2 years, no effects
[7] = reproduction developmental, mortality
[8] = subchronic, duration: 90 days, no effects

Compound | LD50 [1] | LC50 [2] | LD50 ([3]; acute, oral, mortality) | NOAEL [3, 6] | NOAEL [3, 7] | NOAEL [3, 8] | LD50 [4] | LC50 [5] | NOAEL ([3]; developmental, duration: 10 days, development) | NOAEL ([3]; subchronic, duration: 90 days, mortality)
[Al+3].[P-3] [Aluminum phosphide] | 49 mg/kg-day | 664 mg/kg | 8.7 mg/kg-day | 1.1 mg/kg-day | 1.9 mg/kg-day | 1.1 mg/kg-day | 0.24 µg/piece | 4.68 ng/mL | – | –
P [Phosphine] | – | – | – | 1.1 mg/kg-day | 1.9 mg/kg-day | 1.1 mg/kg-day | – | – | 1.9 mg/kg-day | 1.11 mg/kg-day
